According to patent publication US8067589B2, “Heterocyclic compounds useful in treating diseases and conditions” (Pfizer Inc, priority 2007, dated 2011):

Target: human recombinant H-PGDS (Homo sapiens, UniProt O60760)
Experiment: Fluoresecence Intensity h-PGDSTBA Enzyme Assay
Conditions: 10 min preincubation, 4-parameter fit, highest inhibitor concentration typically 1 μM
[1] = IC50, 5.0 μM PGH2, 2.5 mM L-Glutathione

Chain of human recombinant H-PGDS (O60760 whole entry): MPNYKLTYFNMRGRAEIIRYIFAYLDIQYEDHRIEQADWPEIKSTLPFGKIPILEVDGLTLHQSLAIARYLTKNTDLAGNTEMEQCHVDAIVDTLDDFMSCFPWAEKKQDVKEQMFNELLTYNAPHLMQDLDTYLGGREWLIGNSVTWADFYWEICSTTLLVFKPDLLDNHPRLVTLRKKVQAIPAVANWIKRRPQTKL

Row | IC50 [1] [nM] | IC50 (5.0 μM PGH2, 2.5 mM L-Glutathione) [nM] | Compound
1 | 6.55 | – | O=C(NC1CCN(C(COc2c(F)cccc2F)c2ccccc2)CC1)c1cnc(-c2cccc(F)c2)nc1 (centres unmarked) [Example 30, N-{1-[2-(2,6-Difluorophenoxy)-1-phenylethyl]piperidin-4-yl}-2-(3-fluorophenyl)pyrimidine-5-carboxamide]
2 | 10.2 | – | O=C(NC1CCN(C(COc2ccc(F)cc2F)c2ccccc2)CC1)c1cnc(-c2cccc(F)c2)nc1 (centres unmarked) [Example 47, N-{1-[2-(2,4-Difluorophenoxy)-1-phenylethyl]piperidin-4-yl}-2-(3-fluorophenyl)pyrimidine-5-carboxamide]
3 | 0.211 | – | Cc1nc(N2CCC(NC(=O)c3cnc(-c4cccc(F)c4)nc3)C2)ncc1S(C)(=O)=O (centres unmarked) [Example 80, 2-(3-Fluorophenyl)-N-{1-[4-methyl-5-(methylsulfonyl)pyrimidin-2-yl]pyrrolidin-3-yl}pyrimidine-5-carboxamide]
4 | 2.87 | – | CC(C)(C)OC(=O)N1C[C@H](NC(=O)c2cnc(-c3cccc(F)c3)nc2)[C@@H](F)C1 [Example 92, tert-Butyl (3S,4S)-3-fluoro-4-({[2-(3-fluorophenyl)pyrimidin-5-yl]carbonyl}amino)pyrrolidine-1-carboxylate]
5 | 4.44 | – | COc1cccc(OCC(c2ccccc2)N2CCC(NC(=O)c3cnc(-c4cccc(F)c4)nc3)CC2)c1 (centres unmarked) [Example 39, 2-(3-Fluorophenyl)-N-{1-[2-(3-methoxyphenoxy)-1-phenylethyl]piperidin-4-yl}pyrimidine-5-carboxamide]
6 | 6.57 | – | CC(C)N1CCC(NC(=O)c2cnc(-c3cccc(F)c3)nc2)C1 (centres unmarked) [Example 87, 2-(3-Fluorophenyl)-N-(1-isopropylpyrrolidin-3-yl)pyrimidine-5-carboxamide]
7 | 0.166 | – | O=C(NC1CCN(CC(F)(F)F)CC1)c1cnc(-c2cccc(F)c2)nc1 [Example 27, 2-(3-Fluorophenyl)-N-[1-(2,2,2-trifluoroethyl)piperidin-4-yl]pyrimidine-5-carboxamide]
8 | 10.2 | – | O=C(NC1CCN(C(COc2cccc(Cl)c2)c2ccccc2)CC1)c1cnc(-c2cccc(F)c2)nc1 (centres unmarked) [Example 41, N-{1-[2-(3-Chlorophenoxy)-1-phenylethyl]piperidin-4-yl}-2-(3-fluorophenyl)pyrimidine-5-carboxamide]
9 | 0.658 | – | CCOC(=O)N1CCC(NC(=O)c2cnc(-c3cccc(F)c3)nc2)C1 (centres unmarked) [Example 82, Ethyl 3-({[2-(3-fluorophenyl)pyrimidin-5-yl]carbonyl}amino)pyrrolidine-1-carboxylate]
10 | 3.59 | – | CCC(C)N1CCC(NC(=O)c2cnc(-c3cccc(F)c3)nc2)CC1 (centres unmarked) [Example 69, N-(1-sec-Butylpiperidin-4-yl)-2-(3-fluorophenyl)pyrimidine-5-carboxamide]
11 | 0.27 | – | O=C(NC1CCN(c2ncc3c(n2)CCOC3)C1)c1cnc(-c2cccc(F)c2)nc1 (single isomer, unassigned) [Example 81a, N-(1-(7,8-Dihydro-5H-pyrano[4,3-d]pyrimidin-2-yl)pyrrolidin-3-yl)-2-(3-fluorophenyl)pyrimidine-5-carboxamide]
12 | 162 | – | Cc1nc(-c2ccccc2)ncc1C(=O)NC1CCN(C(C)C)CC1 [Example 1, N-(1-Isopropylpiperidin-4-yl)-4-methyl-2-phenylpyrimidine-5-carboxamide]
13 | 0.58 | – | CCCCN1CCC(NC(=O)c2cnc(-c3cccc(F)c3)nc2)CC1 [Example 61, N-(1-Butylpiperidin-4-yl)-2-(3-fluorophenyl)pyrimidine-5-carboxamide]
14 | 0.987 | – | O=C(NC1CCN(Cc2ccccc2C(F)(F)F)C1=O)c1cnc(-c2cccc(F)c2)nc1 (centres unmarked) [Example 84, 2-(3-Fluorophenyl)-N-{2-oxo-1-[2-(trifluoromethyl)benzyl]pyrrolidin-3-yl}pyrimidine-5-carboxamide]
15 | 0.815 | – | Cc1cc(C)c(C#N)c(N2CC(NC(=O)c3cnc(-c4cccc(F)c4)nc3)C2)n1 [Example 103, N-[1-(3-Cyano-4,6-dimethylpyridin-2-yl)azetidin-3-yl]-2-(3-fluorophenyl)pyrimidine-5-carboxamide]
16 | ≥ 1000 | – | CC(C)(C)OC(=O)N1CCC(NC(=O)c2cnc(-c3ccccc3)nc2O)CC1 [Example 20, tert-Butyl 4-{[(4-hydroxy-2-phenyl-pyrimidin-5-yl)carbonyl]amino}piperidine-1-carboxylate]
17 | 0.147 | – | O=C(NC1CCN(c2ncc3c(n2)CCC3)C1)c1cnc(-c2cccc(F)c2)nc1 (centres unmarked) [Example 89, N-[1-(6,7-Dihydro-5H-cyclopenta[d]pyrimidin-2-yl)pyrrolidin-3-yl]-2-(3-fluorophenyl)pyrimidine-5-carboxamide]
18 | 1.82 | – | O=C(N[C@@H]1CN(c2ncccn2)C[C@@H]1O)c1cnc(-c2cccc(F)c2)nc1 (relative stereo) [Example 98, Cis-2-(3-Fluorophenyl)-N-[4-hydroxy-1-pyrimidin-2-ylpyrrolidin-3-yl]pyrimidine-5-carboxamide]
19 | 35 | – | Cc1ccc(Cl)c(OCC(c2ccccc2)N2CCC(NC(=O)c3cnc(-c4cccc(F)c4)nc3)CC2)c1F (centres unmarked) [Example 43, N-{1-[2-(6-Chloro-2-fluoro-3-methylphenoxy)-1-phenylethyl]piperidin-4-yl}-2-(3-fluorophenyl)pyrimidine-5-carboxamide]

Row | IC50 [1] [nM] | IC50 (5.0 μM PGH2, 2.5 mM L-Glutathione) [nM] | Compound
20 | 0.355 | – | O=C(NC1CCN(CC2CCCC2)CC1)c1cnc(-c2cccc(F)c2)nc1 [Example 66, N-[1-(Cyclopentylmethyl)piperidin-4-yl]-2-(3-fluorophenyl)pyrimidine-5-carboxamide]
21 | ≥ 1000 | – | O=C(NC1CCN(CC(F)(F)F)CC1)c1cnc(-c2ccccc2)nc1O [Example 22, 4-Hydroxy-2-phenyl-N-[1-(2,2,2-trifluoroethyl)piperidin-4-yl] pyrimidine-5-carboxamide]
22 | 302 | – | Cc1nc(-c2ccccc2)ncc1C(=O)NC1CCN(C)CC1 [Example 4, 4-Methyl-N-(1-methylpiperid-4-yl)-2-phenylpyrimidine-5-carboxamide]
23 | 0.364 | – | O=C(NC1CN(c2cnc3ccccc3n2)C1)c1cnc(-c2cccc(F)c2)nc1 [Example 105, 2-(3-Fluorophenyl)-N-(1-quinoxalin-2-ylazetidin-3-yl)pyrimidine-5-carboxamide]
24 | 0.428 | – | O=C(NC1CCN(Cc2ccccc2)CC1)c1cnc(-c2ccccc2)nc1 [Example 12, N-(1-Benzylpiperidin-4-yl)-2-phenylpyrimidine-5-carboxamide]
25 | 29.6 | – | O=C(NC1CCN(C(COc2ccc(C(F)(F)F)cc2)c2ccccc2)CC1)c1cnc(-c2cccc(F)c2)nc1 (centres unmarked) [Example 48, 2-(3-Fluorophenyl)-N-(1-{1-phenyl-2-[4-(trifluoromethyl)phenoxy]ethyl}piperidin-4-yl)pyrimidine-5-carboxamide]
26 | 270 | – | COC(=O)c1cccc(-c2ncc(C(=O)NC3CCN(CC(F)(F)F)CC3)cn2)c1 [Example 125, Methyl 3-[5-({[1-(2,2,2-trifluoroethyl)piperidin-4-yl]amino}carbonyl)pyrimidin-2-yl]benzoate]
27 | 2700 | – | CS(=O)(=O)Nc1cccc(-c2ncc(C(=O)NC3CCN(Cc4ccccn4)CC3)cn2)c1 [Example 176, 2-{3-[(Methylsulfonyl)amino]phenyl}-N-[1-(pyridin-2-ylmethyl)piperidin-4-yl]pyrimidine-5-carboxamide]
28 | – | 0.275 | 2-Phenyl-N-[1-(2,2,2- trifluoroethyl) piperidin-4-yl] pyrimidine-5- carboxamide [Example 9]
29 | 7.07 | – | O=C(NC1CCN(Cc2ccc(C(F)(F)F)c(F)c2)CC1)c1cnc(-c2cccc(F)c2)nc1 [Example 37, 2-(3-Fluorophenyl)-N-{1-[3-fluoro-4-(trifluoromethyl)benzyl]piperidin-4-yl}pyrimidine-5-carboxamide]
30 | 18.3 | – | O=C(NC1CCN(c2ccc(C(=O)N3CCOCC3)cn2)CC1)c1cnc(-c2cc(F)ccc2F)nc1 [Example 75, 2-(2,5-Difluorophenyl)-N-{1-[5-(morpholin-4-ylcarbonyl)pyridin-2-yl]piperidin-4-yl}pyrimidine-5-carboxamide]
31 | 0.46 | – | O=C(NC1CCN(c2ncc3c(n2)CCOC3)C1)c1cnc(-c2cccc(F)c2)nc1 (single isomer, unassigned) [Example 81b, N-(1-(7,8-Dihydro-5H-pyrano[4,3-d]pyrimidin-2-yl)pyrrolidin-3-yl)-2-(3-fluorophenyl)pyrimidine-5-carboxamide]
32 | 0.489 | – | Cc1ccccc1CN1CCC(NC(=O)c2cnc(-c3cccc(F)c3)nc2)CC1 [Example 62, 2-(3-Fluorophenyl)-N-[1-(2-methylbenzyl)piperidin-4-yl]pyrimidine-5-carboxamide]
33 | 0.335 | – | O=C(NC1CCN(Cc2cccc(F)c2)CC1)c1cnc(-c2cccc(F)c2)nc1 [Example 65, N-[1-(3-Fluorobenzyl)piperidin-4-yl]-2-(3-fluorophenyl)pyrimidine-5-carboxamide]
34 | 0.58 | – | CCOC(=O)N1CCC(NC(=O)c2cnc(-c3cccc(F)c3)nc2)C1 (single isomer, unassigned) [Example 82b, Ethyl 3-(2-(3-fluorophenyl)pyrimidine-5-carboxamido)pyrrolidine-1-carboxylate]
35 | 0.457 | – | O=C(NC1CCN(CC2CCCCC2)CC1)c1cnc(-c2cccc(F)c2)nc1 [Example 52, N-[1-(Cyclohexylmethyl)piperidin-4-yl]-2-(3-fluorophenyl)pyrimidine-5-carboxamide]
36 | 9.55 | – | O=C(NC1CCN(C(COc2cc(F)c(F)c(F)c2)c2ccccc2)CC1)c1cnc(-c2cccc(F)c2)nc1 (centres unmarked) [Example 50, 2-(3-Fluorophenyl)-N-{1-[1-phenyl-2-(3,4,5-trifluorophenoxy)ethyl]piperidin-4-yl}pyrimidine-5-carboxamide]
37 | 2 | – | CCCN1CCC(NC(=O)c2cnc(-c3ccccc3)nc2)CC1 [Example 10, 2-Phenyl-N-(1-propylpiperidin-4-yl) pyrimidine-5-carboxamide]
38 | 9460 | – | CC(=O)c1ccccc1-c1ncc(C(=O)NC2CCN(CC(F)(F)F)CC2)cn1 [Example 119, 2-(2-Acetylphenyl)-N-[1-(2,2,2-trifluoroethyl)piperidin-4-yl]pyrimidine-5-carboxamide]
